Laboratory results: paper PMC10056986 (Pharmaceuticals, 2023)
Where two headings read alike, the source gives them in different places.

Assays:
[1] = target: MAPKAPK2 (Homo sapiens, UniProt P49137); assay: biochemical
[2] = target: p38 alpha (Homo sapiens, UniProt Q16539); assay: biochemical
[3] = target: PKA (Homo sapiens, UniProt P17612); assay: biochemical
[4] = target: T1, op-delta (Homo sapiens, UniProt P41143); assay: cell-based
[5] = target: op-kappa (Homo sapiens, UniProt P41145); assay: cell-based
Chain of op-kappa (P41145 whole entry): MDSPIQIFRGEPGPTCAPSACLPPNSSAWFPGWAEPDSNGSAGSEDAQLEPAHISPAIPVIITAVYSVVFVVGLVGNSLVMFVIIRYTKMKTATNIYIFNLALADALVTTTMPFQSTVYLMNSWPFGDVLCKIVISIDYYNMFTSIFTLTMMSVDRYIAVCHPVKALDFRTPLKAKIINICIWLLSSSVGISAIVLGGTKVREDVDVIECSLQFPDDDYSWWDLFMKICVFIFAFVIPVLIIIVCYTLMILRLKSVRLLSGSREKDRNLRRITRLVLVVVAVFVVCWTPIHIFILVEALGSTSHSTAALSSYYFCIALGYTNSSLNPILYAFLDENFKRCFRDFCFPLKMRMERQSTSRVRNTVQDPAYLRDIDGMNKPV

[6] = target: M1 (Homo sapiens, UniProt P11229); assay: cell-based
Chain of M1 (P11229 whole entry): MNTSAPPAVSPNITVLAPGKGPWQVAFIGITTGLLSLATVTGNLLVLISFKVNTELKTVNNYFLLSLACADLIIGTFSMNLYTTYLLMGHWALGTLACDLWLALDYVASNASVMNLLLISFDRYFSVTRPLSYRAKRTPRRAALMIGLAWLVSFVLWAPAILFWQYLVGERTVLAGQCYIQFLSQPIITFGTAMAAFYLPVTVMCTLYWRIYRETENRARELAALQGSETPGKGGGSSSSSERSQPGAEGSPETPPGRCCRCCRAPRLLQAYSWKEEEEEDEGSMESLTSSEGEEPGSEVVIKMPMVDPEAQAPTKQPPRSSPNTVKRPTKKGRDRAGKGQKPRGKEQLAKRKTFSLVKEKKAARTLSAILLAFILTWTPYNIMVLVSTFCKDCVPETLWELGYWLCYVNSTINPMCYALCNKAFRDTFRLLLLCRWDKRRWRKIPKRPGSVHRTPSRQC

[7] = target: T2, M3 (Homo sapiens, UniProt P20309); assay: cell-based
T2 sequence (P20309 whole entry): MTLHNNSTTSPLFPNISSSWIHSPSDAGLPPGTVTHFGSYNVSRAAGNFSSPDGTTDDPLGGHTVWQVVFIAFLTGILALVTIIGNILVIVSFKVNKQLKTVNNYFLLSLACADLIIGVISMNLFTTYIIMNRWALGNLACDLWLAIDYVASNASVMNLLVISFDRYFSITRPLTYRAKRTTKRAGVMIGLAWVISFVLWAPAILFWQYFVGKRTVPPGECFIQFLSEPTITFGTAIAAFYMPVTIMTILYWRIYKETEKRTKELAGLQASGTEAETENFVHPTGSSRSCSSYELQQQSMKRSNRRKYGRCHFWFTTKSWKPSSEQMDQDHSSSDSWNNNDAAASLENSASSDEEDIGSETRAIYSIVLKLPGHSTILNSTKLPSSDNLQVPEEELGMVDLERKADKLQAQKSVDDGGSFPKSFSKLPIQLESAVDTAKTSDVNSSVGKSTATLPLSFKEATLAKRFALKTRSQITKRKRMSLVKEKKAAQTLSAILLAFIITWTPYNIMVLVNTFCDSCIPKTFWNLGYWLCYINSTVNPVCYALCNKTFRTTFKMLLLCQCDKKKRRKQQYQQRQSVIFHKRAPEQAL

[8] = target: Beta2 (Homo sapiens, UniProt P07550); assay: cell-based
Chain of Beta2 (P07550 whole entry): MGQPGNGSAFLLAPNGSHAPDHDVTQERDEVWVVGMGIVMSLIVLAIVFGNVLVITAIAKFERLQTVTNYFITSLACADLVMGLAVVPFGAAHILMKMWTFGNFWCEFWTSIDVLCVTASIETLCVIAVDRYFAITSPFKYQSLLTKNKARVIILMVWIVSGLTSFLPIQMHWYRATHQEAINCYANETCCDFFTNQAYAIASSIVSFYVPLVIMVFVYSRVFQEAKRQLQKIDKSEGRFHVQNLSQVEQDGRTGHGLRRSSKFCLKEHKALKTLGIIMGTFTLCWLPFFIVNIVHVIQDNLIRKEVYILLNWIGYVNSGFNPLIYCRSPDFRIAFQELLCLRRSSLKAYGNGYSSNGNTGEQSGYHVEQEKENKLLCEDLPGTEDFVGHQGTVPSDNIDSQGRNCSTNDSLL

[9] = target: T3, CCKa (Homo sapiens, UniProt P32238); assay: cell-based
T3 sequence (P32238 1-428): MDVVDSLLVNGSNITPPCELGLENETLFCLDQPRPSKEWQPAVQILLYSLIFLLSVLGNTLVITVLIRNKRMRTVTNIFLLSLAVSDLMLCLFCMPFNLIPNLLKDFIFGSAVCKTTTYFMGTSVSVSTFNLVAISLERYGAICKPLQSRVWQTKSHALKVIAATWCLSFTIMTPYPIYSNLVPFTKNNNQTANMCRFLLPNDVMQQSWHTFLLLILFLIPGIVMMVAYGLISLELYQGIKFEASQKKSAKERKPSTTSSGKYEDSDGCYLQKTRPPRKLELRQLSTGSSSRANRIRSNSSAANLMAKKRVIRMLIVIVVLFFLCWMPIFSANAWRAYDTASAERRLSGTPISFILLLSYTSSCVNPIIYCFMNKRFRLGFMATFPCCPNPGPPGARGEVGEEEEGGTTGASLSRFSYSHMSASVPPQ

[10] = target: T1, op-delta; assay: cell-based; remark: listed apart in the source
[11] = target: D1 (Homo sapiens, UniProt P21728); assay: cell-based
Chain of D1 (P21728 whole entry): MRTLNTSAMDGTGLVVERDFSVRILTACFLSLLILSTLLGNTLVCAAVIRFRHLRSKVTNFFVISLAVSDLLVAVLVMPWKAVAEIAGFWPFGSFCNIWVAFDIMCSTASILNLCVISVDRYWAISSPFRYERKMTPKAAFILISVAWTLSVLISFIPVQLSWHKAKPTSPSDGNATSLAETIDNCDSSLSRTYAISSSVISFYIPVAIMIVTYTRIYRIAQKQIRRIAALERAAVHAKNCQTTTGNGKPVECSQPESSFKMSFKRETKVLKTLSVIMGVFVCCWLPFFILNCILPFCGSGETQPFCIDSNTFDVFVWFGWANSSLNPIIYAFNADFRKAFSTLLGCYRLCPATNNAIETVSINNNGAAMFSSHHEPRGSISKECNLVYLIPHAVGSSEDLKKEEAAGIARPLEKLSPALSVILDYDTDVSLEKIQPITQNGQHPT

[12] = target: Alpha2a (Homo sapiens, UniProt P08913); assay: cell-based
Chain of Alpha2a (P08913 whole entry): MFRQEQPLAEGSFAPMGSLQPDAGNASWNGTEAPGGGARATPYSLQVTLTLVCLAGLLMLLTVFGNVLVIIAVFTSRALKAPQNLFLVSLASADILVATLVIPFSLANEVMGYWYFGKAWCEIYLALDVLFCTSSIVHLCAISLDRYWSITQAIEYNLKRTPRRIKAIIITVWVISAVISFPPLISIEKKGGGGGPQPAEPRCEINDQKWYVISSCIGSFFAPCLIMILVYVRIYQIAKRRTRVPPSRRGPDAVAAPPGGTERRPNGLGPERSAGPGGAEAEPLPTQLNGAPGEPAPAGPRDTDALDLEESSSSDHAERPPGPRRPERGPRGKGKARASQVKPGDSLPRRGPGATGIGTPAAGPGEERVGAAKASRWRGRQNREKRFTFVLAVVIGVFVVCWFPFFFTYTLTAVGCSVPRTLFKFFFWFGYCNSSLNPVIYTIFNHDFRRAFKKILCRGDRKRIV

[13] = target: M2 (Homo sapiens, UniProt P08172); assay: cell-based
[14] = target: T2, M3; assay: cell-based; remark: listed apart in the source
[15] = target: Beta1 (Homo sapiens, UniProt P08588); assay: cell-based
Chain of Beta1 (P08588 whole entry): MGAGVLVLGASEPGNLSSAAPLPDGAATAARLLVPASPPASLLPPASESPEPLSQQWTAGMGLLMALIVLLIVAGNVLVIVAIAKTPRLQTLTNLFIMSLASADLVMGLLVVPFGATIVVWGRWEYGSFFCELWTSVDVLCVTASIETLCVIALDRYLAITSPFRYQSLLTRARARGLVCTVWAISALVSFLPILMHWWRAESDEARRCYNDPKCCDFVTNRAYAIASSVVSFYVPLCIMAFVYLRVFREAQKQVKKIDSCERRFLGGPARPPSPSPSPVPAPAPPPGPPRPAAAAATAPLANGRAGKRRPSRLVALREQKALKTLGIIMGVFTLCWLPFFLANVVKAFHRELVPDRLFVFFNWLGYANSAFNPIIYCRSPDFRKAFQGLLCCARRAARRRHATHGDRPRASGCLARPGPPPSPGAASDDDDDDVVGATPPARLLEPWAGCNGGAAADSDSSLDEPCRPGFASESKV

[16] = tested on: AD2; type: cell-based, human
[17] = target: 5HT1A (Homo sapiens, UniProt P08908); assay: cell-based
Chain of 5HT1A (P08908 whole entry): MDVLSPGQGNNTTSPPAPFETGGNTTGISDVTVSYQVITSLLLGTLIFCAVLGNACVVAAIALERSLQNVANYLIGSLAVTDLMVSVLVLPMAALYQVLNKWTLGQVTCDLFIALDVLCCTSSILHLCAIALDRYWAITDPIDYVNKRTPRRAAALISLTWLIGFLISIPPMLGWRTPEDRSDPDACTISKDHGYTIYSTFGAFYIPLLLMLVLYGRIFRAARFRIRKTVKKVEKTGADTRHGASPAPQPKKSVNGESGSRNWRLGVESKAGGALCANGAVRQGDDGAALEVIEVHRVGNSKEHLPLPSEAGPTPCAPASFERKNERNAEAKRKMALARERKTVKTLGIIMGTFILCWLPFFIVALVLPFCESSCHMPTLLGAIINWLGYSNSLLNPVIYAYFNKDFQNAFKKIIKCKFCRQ

[18] = target: 5HT2A (Homo sapiens, UniProt P28223); assay: cell-based
Chain of 5HT2A (P28223 whole entry): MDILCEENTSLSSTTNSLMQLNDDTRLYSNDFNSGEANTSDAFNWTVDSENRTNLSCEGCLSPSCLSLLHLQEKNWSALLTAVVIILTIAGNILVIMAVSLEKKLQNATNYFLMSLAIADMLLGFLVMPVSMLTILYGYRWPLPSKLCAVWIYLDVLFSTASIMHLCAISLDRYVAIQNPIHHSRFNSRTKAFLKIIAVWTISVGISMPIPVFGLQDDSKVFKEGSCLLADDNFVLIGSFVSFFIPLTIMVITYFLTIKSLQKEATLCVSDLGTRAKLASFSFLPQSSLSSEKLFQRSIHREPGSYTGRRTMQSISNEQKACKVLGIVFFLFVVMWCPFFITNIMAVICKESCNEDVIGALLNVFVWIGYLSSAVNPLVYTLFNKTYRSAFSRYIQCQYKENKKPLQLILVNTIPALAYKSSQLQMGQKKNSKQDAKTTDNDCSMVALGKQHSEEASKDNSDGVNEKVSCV

[19] = target: CB1 (Homo sapiens, UniProt P21554); assay: cell-based
Chain of CB1 (P21554 whole entry): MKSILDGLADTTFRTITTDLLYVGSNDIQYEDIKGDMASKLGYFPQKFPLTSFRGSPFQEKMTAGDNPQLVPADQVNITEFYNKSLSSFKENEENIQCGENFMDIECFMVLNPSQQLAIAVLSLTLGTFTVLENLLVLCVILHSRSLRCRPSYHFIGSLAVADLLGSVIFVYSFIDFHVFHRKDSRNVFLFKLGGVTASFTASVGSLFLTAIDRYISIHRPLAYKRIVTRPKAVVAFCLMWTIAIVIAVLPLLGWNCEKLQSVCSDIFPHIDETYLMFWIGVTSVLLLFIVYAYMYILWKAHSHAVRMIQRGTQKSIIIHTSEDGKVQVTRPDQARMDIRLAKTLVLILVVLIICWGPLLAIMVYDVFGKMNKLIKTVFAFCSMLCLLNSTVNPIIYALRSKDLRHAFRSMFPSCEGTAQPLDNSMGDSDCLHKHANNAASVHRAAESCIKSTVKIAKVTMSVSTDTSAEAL

[20] = tested on: Influenza virus A/Weiss/43(H1N1); assay: microbe, parasite or virus in culture; type: cell-based; conditions: H1N1, MDCK, read-out: EC50 (mean ± SD)
[21] = tested on: A/Guangzhou/39715/2014 (H5N6); assay: microbe, parasite or virus in culture; type: cell-based, avian influenza virus; conditions: unidentified influenza virus, H5N6, MDCK, read-out: IC50 (mean ± SD)
[22] = tested on: Influenza virus A/California/07/2009 (H1N1)pdm09; assay: microbe, parasite or virus in culture; type: cell-based; conditions: H1N1, MDCK, read-out: EC50 (mean ± SD)
[23] = tested on: RSV long; assay: microbe, parasite or virus in culture; type: cell-based, respiratory syncytial virus; conditions: human respiratory syncytial virus, HEp-2, read-out: EC50 for Virus
[24] = tested on: HRV 1B; assay: microbe, parasite or virus in culture; type: cell-based; conditions: Human rhinovirus sp., H1-HeLa, read-out: EC50 for Virus
[25] = tested on: influenza A virus WSN/33 (H1N1); design: species or system BALB/c mice; conditions: mouse, in vivo
[26] = tested on: A/PR/8/34 (H1N1); design: species or system BALB/c mice; conditions: mouse, in vivo
[27] = rat, in vivo, 15 mg/kg
[28] = in vitro; conditions: human
[29] = in vitro; conditions: rhesus monkey
[30] = in vitro
[31] = tested on: H1N1 and H3N2 influenza A virus strains; assay: in vitro; conditions: dog
[32] = target: MAP4K4 (Homo sapiens, UniProt O95819); assay: biochemical
[33] = target: KDR (Homo sapiens, UniProt P35968); assay: biochemical
[34] = target: SRC (Homo sapiens, UniProt P12931); assay: biochemical
[35] = target: TAOK2 (Homo sapiens, UniProt Q9UL54); assay: biochemical
[36] = 10,000 nM, read-out: Inhibition at Maximum Concentration (%)

T1 sequence (P41143 whole entry): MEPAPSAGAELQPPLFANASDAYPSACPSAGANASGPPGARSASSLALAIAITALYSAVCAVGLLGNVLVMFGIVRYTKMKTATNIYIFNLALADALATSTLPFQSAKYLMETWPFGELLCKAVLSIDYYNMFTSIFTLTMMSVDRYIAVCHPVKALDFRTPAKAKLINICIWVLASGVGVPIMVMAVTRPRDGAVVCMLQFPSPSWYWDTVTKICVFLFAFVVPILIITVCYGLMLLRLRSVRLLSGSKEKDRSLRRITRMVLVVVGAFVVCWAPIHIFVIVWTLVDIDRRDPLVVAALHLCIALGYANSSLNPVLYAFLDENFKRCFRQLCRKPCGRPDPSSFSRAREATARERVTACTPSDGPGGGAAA

**Q.** With `O=C(O)[C@H]1C2CCC(CC2)[C@@H]1Nc1nc(-c2n[nH]c3ncc(F)cc23)nc(C2CC2)c1F` [ZSP1273] as the molecule, how does the IC50 [1] read?
**A.** > 10 µM

**Q.** And the IC50 [2]?
**A.** > 10 µM

**Q.** What about the IC50 [3] of the same molecule?
**A.** > 10 µM

**Q.** What about the EC50 [4] of the same molecule?
**A.** > 12 µM

**Q.** What about the “Activity at Maximum Concentration (%)” value ([4]; 12,000 nM) of the same molecule?
**A.** −10.64%

**Q.** What about the EC50 [5] of the same molecule?
**A.** > 12 µM

**Q.** What about the “Activity at Maximum Concentration (%)” value ([5]; 12,000 nM) of the same molecule?
**A.** −18.96%

**Q.** And the EC50 [6]?
**A.** > 12 µM

**Q.** And the “Activity at Maximum Concentration (%)” value ([6]; 12,000 nM)?
**A.** −3.22%

**Q.** What about the EC50 [7] of the same molecule?
**A.** > 12 µM

**Q.** What about the “Activity at Maximum Concentration (%)” value ([7]; 12,000 nM) of the same molecule?
**A.** −2.89%

**Q.** And the EC50 [8]?
**A.** > 12 µM

**Q.** What about the “Activity at Maximum Concentration (%)” value ([8]; 12,000 nM) of the same molecule?
**A.** 1.43%

**Q.** What about the EC50 [9] of the same molecule?
**A.** > 12 µM

**Q.** And the “Activity at Maximum Concentration (%)” value ([9]; 12,000 nM)?
**A.** −4.4%

**Q.** And the IC50 [10]?
**A.** > 10 µM

**Q.** And the inhibition at 10 µM [10, 36]?
**A.** 7.37%

**Q.** And the IC50 [11]?
**A.** > 10 µM

**Q.** What about the inhibition at 10 µM [11, 36] of the same molecule?
**A.** -16.7%

**Q.** What about the IC50 [12] of the same molecule?
**A.** > 10 µM

**Q.** What about the inhibition at 10 µM [12, 36] of the same molecule?
**A.** -9.3%

**Q.** And the IC50 [13]?
**A.** > 10 µM

**Q.** What about the inhibition at 10 µM [13, 36] of the same molecule?
**A.** -55.7%

**Q.** What about the IC50 [14] of the same molecule?
**A.** > 10 µM

**Q.** And the inhibition at 10 µM [14, 36]?
**A.** -4.78%

**Q.** And the IC50 [15]?
**A.** > 10 µM

**Q.** What about the inhibition at 10 µM [15, 36] of the same molecule?
**A.** -22.7%

**Q.** What about the IC50 [16] of the same molecule?
**A.** > 10 µM

**Q.** And the “Inhibition at Maximum Concentration (%)” value ([16]; 10,000 nM)?
**A.** 43.84%

**Q.** What about the IC50 [17] of the same molecule?
**A.** > 10 µM

**Q.** What about the inhibition at 10 µM [17, 36] of the same molecule?
**A.** 19%

**Q.** What about the IC50 [18] of the same molecule?
**A.** > 10 µM

**Q.** What about the inhibition at 10 µM [18, 36] of the same molecule?
**A.** 2.56%

**Q.** What about the IC50 [19] of the same molecule?
**A.** > 10 µM

**Q.** What about the inhibition at 10 µM [19, 36] of the same molecule?
**A.** -77.2%

**Q.** And the EC50 [20]?
**A.** 12 ± 2 pM

**Q.** And the IC50 [21]?
**A.** 0.000245 ± 3e-05 µM

**Q.** What about the EC50 [22] of the same molecule?
**A.** 20 ± 3 pM

**Q.** What about the EC50 [23] of the same molecule?
**A.** > 10 µM

**Q.** What about the EC50 [24] of the same molecule?
**A.** 7.88 µM

**Q.** What about the “body weight of mice” value [25] of the same molecule?
**A.** did not significantly reduce the body weight

**Q.** What about the “survival rate vs vehicle” value [25] of the same molecule?
**A.** could improve the survival rate

**Q.** What about the “time of death relative to vehicle group” value [25] of the same molecule?
**A.** died later than those in the vehicle group

**Q.** And the mortality [26]?
**A.** 40%

**Q.** What about the “accumulation (AUC0-last and Cmax, day 7 vs day 1)” value [27] of the same molecule?
**A.** No significant accumulation

**Q.** And the CC50 [28]?
**A.** > 10 µM

**Q.** And the CC50 [29]?
**A.** > 10 µM

**Q.** What about the CC50 [30] of the same molecule?
**A.** > 10 µM

**Q.** And the selectivity ratio [31]?
**A.** > 25000

**Q.** And the IC50 [32]?
**A.** > 10 µM

**Q.** What about the IC50 [33] of the same molecule?
**A.** > 10 µM

**Q.** And the IC50 [34]?
**A.** > 10 µM

**Q.** What about the IC50 [35] of the same molecule?
**A.** > 10 µM
